# Results published in patent US6051712A, “Piperidine derivatives having renin inhibiting activity” (Hoffmann-La Roche Inc., priority 1995, dated 2000).
# pIC50: −log10 of the molar value. Counter-ions that a name gives are not always drawn.
# Target: T1, human renin (Homo sapiens, UniProt P00797)
# T1 sequence (P00797 67-406): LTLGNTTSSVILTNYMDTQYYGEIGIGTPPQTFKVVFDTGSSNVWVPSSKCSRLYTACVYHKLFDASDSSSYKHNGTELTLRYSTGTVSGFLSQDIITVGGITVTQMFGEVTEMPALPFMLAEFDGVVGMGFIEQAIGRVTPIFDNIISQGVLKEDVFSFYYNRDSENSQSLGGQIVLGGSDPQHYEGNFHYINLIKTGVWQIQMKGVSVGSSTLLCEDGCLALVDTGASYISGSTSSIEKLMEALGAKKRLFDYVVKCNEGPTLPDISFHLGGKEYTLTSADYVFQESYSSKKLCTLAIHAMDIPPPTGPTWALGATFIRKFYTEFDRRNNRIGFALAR
# Assay: In vitro test with pure human renin (angiotensin I production from human tetradecapeptide renin substrate, measured by RIA)
# Type: biochemical
# Conditions: not given
# Protocol: In vitro test with pure human renin
# The test is carried out in Eppendorf test tubes. The incubation mixture consists of (1) 100 μl of human renin in buffer A (0.1M sodium phosphate solution, pH 7.4, containing 0.1% bovine serum albumin, 0.1% sodium azide and 1 mM ethylenediaminetetraacetic acid), sufficient for a renin activity of 2-3 ng of angiotensin l/ml/hr.; (2) 145 μl of buffer A: (3) 30 μl of 10 mM human tetradecapeptide renin substrate (hTD) in 10 mM hydrochloric acid: (4) […] of dimethyl sulphoxide with or without inhibitor and (5) 10 μl of a 0.03 molar solution of hydroxyquinoline sulphate in water.
# The samples are incubated for three hours at 37° C. and, respectively, 4° C. in triplicate. 2×100 μl samples per test tube are used in order to measure the production of angiotensin I via RIA (standard radioimmunoassay; clinical assay solid phase kit). […] The production of angiotensin I is determined by the difference between the test at 37° C, and that at 4° C.
# The following controls are carried out:
# (a) Incubation of hTD samples without renin and without inhibitor at 37° C. and 4° C. The difference between these two values gives the base value of the angiotensin I production.
# (b) Incubation of hTD samples with renin, but without inhibitor at 37° C. and 4° C. The difference between these values gives the maximum value of the angiotensin I production.
# In each sample the base value of the angiotensin I production is subtracted from the angiotensin I production which is determined. The difference between the maximum value and the base value gives the value of the maximum substrate hydrolysis (=100%) by renin.
# The IC50 values are determined from a linear regression curve from a logit-log plot.
row,pIC50,Compound
1,7.39,"c1ccc(-c2noc(COc3ccc([C@H]4CCNC[C@@H]4OCc4ccc5ccccc5c4)cc3)n2)cc1 (racemic) [E, (3RS,4RS)-3-(naphthalen-2-ylmethoxy)-4-[4-(3-phenyl-[1,2,4]oxadiazol-5-ylmethoxy)-phenyl]-piperidine trifluoroacetate]"
2,8.10,"c1ccc(COCCCOc2ccc([C@H]3CCNC[C@@H]3OCc3ccc4ccccc4c3)cc2)cc1 (racemic) [M, (3RS,4RS)-4-[4-(3-benzyloxy-propoxy)-phenyl]-3-(naphthalen-2-ylmethoxy)-piperidine]"

row,Compound,pIC50
1,"Fc1ccc([C@H]2C[C@@H]3CC[C@@H](N3)[C@@H]2OCc2cc(OCc3ccccc3)c3ccccc3c2)cc1 (racemic) [L, (1RS,2RS,3RS,5SR)-2-(4-benzyloxy-naphthalen-2-ylmethoxy)-3-(4-fluoro-phenyl)-8-aza-bicyclo[3.2.1]octane]",5.51

# Same assay, conditions: pure human renin, pH 7.4, three hours at 37° C. (less 4° C.), human tetradecapeptide substrate, angiotensin I by RIA; read-out: IC50 values (concentration of the inhibitor at which the enzymatic activity is inhibited by 50%)
row,Compound,pIC50
1,"COc1ccccc1COc1cc(CO[C@H]2CNCC[C@@H]2c2ccc(OCCOC(=O)c3ccccc3)cc2)cc2ccccc12 (racemic) [C, (3RS,4RS)-2-[4-[3-[4-(2-methoxy-benzyloxy)-naphthalen-2-ylmethoxy]-piperidin-4-yl]-phenoxy]-ethyl benzoate hydrochloride]",7.15
2,"CCC[C@@H]1CNC[C@H](OCc2cc(OCc3ccccc3)c3ccccc3c2)[C@H]1c1ccc(F)cc1 (racemic) [Compound I, (3RS,4RS,5SR)-3-(4-benzyloxy-naphthalen-2-ylmethoxy)-4-(4-fluoro-phenyl)-5-propyl-piperidine]",6.50
3,"c1ccc(-c2cc(COc3ccc([C@H]4CCNC[C@@H]4OCc4ccc5ccccc5c4)cc3)on2)cc1 (racemic) [F, (3RS,4RS)-3-(naphthalen-2-ylmethoxy)-4-[4-(3-phenyl-isoxazol-5-ylmethoxy)-phenyl]-piperidine trifluoroacetate]",7.24
4,"c1ccc(SCCCc2ccc([C@H]3CCNC[C@@H]3OCc3ccc4ccccc4c3)cc2)cc1 (racemic) [G, (3RS,4RS)-3-(naphthalen-2-ylmethoxy)-4-[4-(3-phenylsulphanyl-propyl)-phenyl]-piperidine]",7.48
5,"Oc1cc(CO[C@H]2CNCC[C@@H]2c2ccc(CCSc3nc4ccccc4s3)cc2)cc2ccccc12 (racemic) [H, (3RS,4RS)-3-[4-[4-[2-(benzothiazol-2-ylsulphanyl)-ethyl]-phenyl]-piperidin-3-yloxymethyl]-naphthalen-1-ol]",7.14
6,"COC[C@@H]1CNC[C@H](OCc2ccc3ccccc3c2)[C@H]1c1ccc(COCc2ccccc2)cc1 (racemic) [J, (3SR,4RS,5RS)-4-(4-benzyloxymethyl-phenyl)-3-methoxymethyl-5-(naphthalen-2-ylmethoxy)-piperidine]",7.77
7,"O=C(Cc1ccc2ccccc2c1)[C@H]1CNC[C@@H](COCCN2CCOCC2)[C@@H]1c1ccc(OCCCOCc2ccccc2)cc1 (racemic) [KK, 1-[(3RS,4SR,5SR)-4-[4-(3-benzyloxy-propoxy)-phenyl]-5-(2-morpholin-4-yl-ethoxymethyl)-piperidin-3-yl]-2-naphthalen-2-yl-ethanone]",7.92
8,"COc1cc(CO[C@H]2CNC[C@@H](O)[C@@H]2c2ccc(OCCCOCc3ccccc3)cc2)c(OC)c2ccccc12 (racemic) [S, (3RS,4SR,5SR)-4-[4-(3-benzyloxy-propoxy)-phenyl]-3-(1,4-dimethoxy-naphthalen-2-ylmethoxy)-piperidin-5-ol]",8.70
9,"CN1CCN(CCO[C@@H]2CNC[C@H](OCc3ccc4ccccc4c3)[C@H]2c2ccc(OCCCOCc3ccccc3)cc2)CC1 (racemic) [X, 1-{2-[(3RS,4RS,5SR)-4-[4-(3-benzyloxy-propoxy)-phenyl]-3-(naphthalen-2-ylmethoxy)-piperidin-5-yloxy]-ethyl}-4-methyl-piperazine]",8.52

# Second part, the compound after the results:
row,pIC50,Compound
1,7.77,"OCC(O)COc1ccc2ccc(CO[C@H]3CNCC[C@@H]3c3ccc(OCCCOCc4ccccc4)cc3)cc2c1 (mixture of isomers) [O, a mixture of (RS)- and (SR)-3-[7-[(3RS,4RS)-4-[4-(3-benzyloxy-propoxy)-phenyl]-piperidin-3-yloxymethyl]-naphthalen-2-yloxy]-propane-1,2-diol]"
2,8.22,"OCC(O)COCCOc1ccc2ccc(CO[C@H]3CNCC[C@@H]3c3ccc(OCCCOCc4ccccc4)cc3)cc2c1 (mixture of isomers) [P, a mixture of (RS)- and (SR)-3-[2-[7-[(3RS,4RS)-4-[4-(3-benzyloxy-propoxy)-phenyl]-piperidin-3-yloxymethyl]-naphthalen-2-yloxy]-ethoxy]-propane-1,2-diol hydrochloride (1:1)]"
3,8.30,"OCC(O)COCc1ccc2ccc(CO[C@H]3CNCC[C@@H]3c3ccc(OCCCOCc4ccccc4)cc3)cc2c1 (mixture of isomers) [T, a mixture of (3RS,4RS)- and (3SR,4SR)-4-[4-(3-benzyloxy-propoxy)-phenyl]-3-[7-[(RS)-2,3-dihydroxy-propoxymethyl]-naphthalen-2-ylmethoxy]-piperidine]"
4,7.62,"OCC(O)COCc1ccc2cc(CO[C@H]3CNCC[C@@H]3c3ccc(OCCCOCc4ccccc4)cc3)ccc2c1 (mixture of isomers) [U, a mixture of (3RS,4RS)- and (3SR,4SR)-4-[4-(3-benzyloxy-propoxy)-phenyl]-3-[6-[(RS)-2,3-dihydroxy-propoxymethyl]-naphthalen-2-ylmethoxy]-piperidine]"
5,7.96,"O=C(OCCOc1ccc([C@H]2CCNC[C@@H]2OCc2ccc3ccccc3c2)cc1)c1cccs1 (racemic) [A, (3RS,4RS)-2-[4-(3-naphthalen-2-ylmethoxy-piperidin-4-yl)-phenoxy]-ethylthiophene-2-carboxylate hydrochloride]"
6,7.40,"c1ccc(COCCCOc2ccc([C@H]3CCNC[C@@H]3OCc3ccc4c(c3)OCCO4)cc2)cc1 (racemic) [D, (3RS,4RS)-4-[4-(3-benzyloxy-propoxy)-phenyl]-3-(2,3-dihydro-benzo[1,4]dioxin-6-ylmethoxy)-piperidine]"
7,7.92,"c1ccc(COCCCOc2ccc([C@H]3CCNC[C@@H]3OCc3ccc4ccc(OCCN5CCOCC5)cc4c3)cc2)cc1 (racemic) [N, 4-[2-[7-[(3RS,4RS)-4-[4-(3-benzyloxy-propoxy)-phenyl]-piperidin-3-yloxymethyl]-naphthalen-2-yloxy]-ethyl]-morpholine hydrochloride (1:2)]"
8,8.22,"COc1ccccc1COCCCOc1ccc([C@H]2CCNC[C@@H]2OCc2ccc3cccnc3c2)cc1 (racemic) [OO, (3RS,4RS)-4-[4-[3-(2-methoxy-benzyloxy)-propoxy]-phenyl]-3-(quinolin-7-ylmethoxy)-piperidine]"
9,8.70,"OCCOCc1ccc2ccc(CO[C@H]3CNCC[C@@H]3c3ccc(OCCCOCc4ccccc4)cc3)cc2c1 (racemic) [PP, 2-(7-{(3RS,4RS)-4-[4-(3-benzyloxy-propoxy)-phenyl]-piperidin-3-yloxymethyl}-naphthalen-2-ylmethoxy)-ethanol]"
10,8.30,"CN1CCN(CCOc2ccc3ccc(CO[C@H]4CNCC[C@@H]4c4ccc(OCCCOCc5ccccc5)cc4)cc3c2)CC1 (racemic) [Q, 1-[2-[7-[(3RS,4RS)-4-[4-(3-benzyloxy-propoxy)-phenyl]-piperidin-3-yloxymethyl]-naphthalen-2-yloxy]-ethyl]-4-methyl-piperazine hydrochloride (1:3)]"
11,8.70,"CN(C)Cc1ccc2ccc(CO[C@H]3CNCC[C@@H]3c3ccc(OCCCOCc4ccccc4)cc3)cc2c1 (racemic) [QQ, (7-{(3RS,4RS)-4-[4-(3-benzyloxy-propoxy)-phenyl]-piperidin-3-yloxymethyl}-naphthalen-2-ylmethyl)-dimethyl-amine]"
12,8.70,"OCCCCO[C@@H]1CNC[C@H](OCc2ccc3ccccc3c2)[C@H]1c1ccc(OCCCOCc2ccccc2)cc1 (racemic) [V, 4-[(3RS,4SR,5SR)-4-[4-(3-benzyloxy-propoxy)-phenyl]-3-(naphthalen-2-ylmethoxy)-piperidin-5-yloxy]-butan-1-ol]"
13,8.70,"OCCCO[C@@H]1CNC[C@H](OCc2ccc3ccccc3c2)[C@H]1c1ccc(OCCCOCc2ccccc2)cc1 (racemic) [W, 3-[(3RS,4SR,5SR)-4-[4-(3-benzyloxy-propoxy)-phenyl]-3-(naphthalen-2-ylmethoxy)-piperidin-5-yloxy]-propan-1-ol]"
14,8.05,"COc1ccccc1COCCCOc1ccc([C@H]2CCNC[C@@H]2OCc2ccc3ccc(=O)[nH]c3c2)cc1 (racemic) [WW, (3RS,4RS)-4-[4-[3-(2-methoxy-benzyloxy)-propoxy]-phenyl]-3-(2-oxo-1,2-dihydro-quinolin-7-ylmethoxy)-piperidine]"
